Values of other authors, collected in US7816404B2, “Methods for the preparation and use of ferric pyrophosphate citrate chelate compositions” (Rockwell Medical Technologies, Inc., priority 2007, dated 2010).

Conditions: stability constant with ferric ion

SMILES | log Kstab for ferric ion
O=C(O)CC(O)(CC(=O)O)C(=O)O [citrate] | 12
O=P(O)(O)OP(=O)(O)O [pyrophosphate] | 22.2
